Experimental data as given in patent publication US10344032B2, “Agents for treating neurogenic inflammation and neuropathic hyperalgesia related disorders” (PÉCSI TUDOMÁNYEGYETEM, priority 2014, dated 2019).

Assays:
[1] = biological target: T1, sst4 receptor (Homo sapiens, UniProt P31391); assay: Somatostatin sst4 receptor-coupled G-protein activation assay ([35S]GTPγS binding); assay type: biochemical; conditions: 100 nM concentration; membrane fractions of CHO cells stably expressing the sst4 receptor; percentage over specific binding in absence of agonists
T1 construct: expressed in transfected cells
Source text: [^35S]GTPγS binding assay is a functional test determining agonist-induced and receptor-mediated G-protein activation which is based on the increase in guanine nucleotide exchange at G-proteins upon agonist stimulation. The interaction of a G protein-coupled receptor (GPCR) with the G protein is the first step in the transduction of the receptor binding signal to the activation of the second-messenger systems. We measured the level of [^35S]-GTPγS bound to the α subunit of G proteins and determined the efficacy of the compounds. Compounds which elicited 200% [^35S]GTPγS binding in nanomolar concentration were considered effective agonist. The examined compounds were added into the medium in 1 nM, 10 nM, 100 nM 1 μM and 10 μM concentrations.
Membrane fractions were prepared from CHO cells stably expressing the sst4 receptor in Tris-EGTA buffer (50 mM Tris-HCl, 1 mM EGTA, 3 mM MgCl2, 100 mM NaCl, pH 7.4). These membrane fractions (˜10 μg of protein/sample) were incubated at 30° C. for 60 min in the same Tris-EGTA buffer containing [^35S]GTPγS (0.05 nM) and increasing concentrations (10^−9 to 10^−5 M) of test compounds in the presence of 30 μM GDP in a final volume of 500 μl. Non-specific binding was determined in the presence of 10 μM unlabelled GTPγS. Total binding was measured in the absence of test compounds. To calculate the specific binding, non-specific binding was subtracted from total binding. The reaction was terminated by filtrating the samples through Whatman GF/B glass fiber filters. Using 48-well Slot Blot Manifold from Cleaver Scientific filters were washed three times with ice-cold 50 mM Tris-HCl buffer (pH 7.4). After drying for 60 min at 37° C., radioactivity was measured in scintillation liquid in a Packard Tri-Carb 2800 TR scintillation counter. Test compound-induced G-protein stimulation was given as percentage over the specific [^35S]GTPγS binding observed in the absence of agonists.

T1 sequence (P31391 whole entry): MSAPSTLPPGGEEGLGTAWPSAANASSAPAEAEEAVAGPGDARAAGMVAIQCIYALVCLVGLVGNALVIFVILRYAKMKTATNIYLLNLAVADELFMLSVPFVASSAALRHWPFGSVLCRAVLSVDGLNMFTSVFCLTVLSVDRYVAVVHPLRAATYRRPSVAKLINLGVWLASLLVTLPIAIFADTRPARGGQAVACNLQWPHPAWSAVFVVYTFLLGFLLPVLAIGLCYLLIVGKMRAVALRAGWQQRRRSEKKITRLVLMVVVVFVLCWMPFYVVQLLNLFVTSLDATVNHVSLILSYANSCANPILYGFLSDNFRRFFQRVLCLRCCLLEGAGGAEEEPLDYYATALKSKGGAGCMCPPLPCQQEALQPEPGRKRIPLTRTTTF

Row | SMILES | melting point [°C] | [35S]GTPγS binding (G-protein activation) [1] [%]
1 | Cc1c(C)n(Cc2ccco2)c2ncnc(NCCc3ccccc3)c12 [Example 32, (7-Furan-2-ylmethyl-5,6-dimethyl-7H-pyrrolo[2,3-d]pyrimidin-4-yl)-phenethyl-amine] | 221 to 223 | 
2 | Cc1c(C)n(Cc2ccco2)c2ncnc(NCCc3cccc(F)c3)c12 [Example 33, [2-(3-Fluoro-phenyl)-ethyl]-(7-furan-2-ylmethyl-5,6-dimethyl-7H-pyrrolo[2,3-d]pyrimidin-4-yl)-amine] | 89 to 90 | 
3 | Cc1c(C)n(Cc2ccco2)c2ncnc(NCC(O)c3ccccc3)c12 (centres unmarked) [Example 35, 2-(7-Furan-2-ylmethyl-5,6-dimethyl-7H-pyrrolo[2,3-d]pyrimidin-4-ylamino)-1-phenyl-ethanol] | 167.5 to 168 | 
4 | Clc1ccccc1CCNc1ncnc2c1ccn2Cc1cncc(Br)c1 [Example 36, [7-(5-Bromo-pyridin-3-ylmethyl)-7H-pyrrolo[2,3-d]pyrimidin-4-yl]-[2-(2-chloro-phenyl)-ethyl]-amine] | 114 to 115 | 
5 | COc1ccc(CCNc2ncnc3c2ccn3Cc2cncc(Br)c2)cc1 [Example 38, [7-(5-Bromo-pyridin-3-ylmethyl)-7H-pyrrolo[2,3-d]pyrimidin-4-yl]-[2-(4-methoxy-phenyl)-ethyl]-amine] | 100.4 to 100.7 | 
6 | COc1cccc(CCNc2ncnc3c2c(C)c(C)n3Cc2ccccc2)c1 [Example 40, (7-Benzyl-5,6-dimethyl-7H-pyrrolo[2,3-d]pyrimidin-4-yl)-[2-(3-methoxy-phenyl)-ethyl]-amine] | 185 to 187.2 | 202.67
7 | COc1ccc(CCNc2ncnc3c2c(C)c(C)n3CCCN(C)C)cc1 [Example 41, [7-(3-Dimethylamino-propyl)-5,6-dimethyl-7H-pyrrolo[2,3-d]pyrimidin-4-yl]-[2-(4-methoxy-phenyl)-ethyl]-amine] |  | 207.67
8 | Cc1c(C)n(Cc2ccccc2)c2ncnc(NCCc3ccccc3Cl)c12 [Example 42, (7-Benzyl-5,6-dimethyl-7H-pyrrolo[2,3-d]pyrimidin-4-yl)-[2-(2-chloro-phenyl)-ethyl]-amine] | 223 to 227 | 
9 | Cc1c(C)n(Cc2ccccc2)c2ncnc(NCCc3cccc(F)c3)c12 [Example 43, (7-Benzyl-5,6-dimethyl-7H-pyrrolo[2,3-d]pyrimidin-4-yl)-[2-(3-fluoro-phenyl)-ethyl]-amine] | 237.6 to 240 | 
10 | Cc1c(C)n(Cc2cccc(Cl)c2)c2ncnc(NCCc3ccc(NC(=O)c4ccccc4)cc3)c12 [Example 44, N-(4-{2-[7-(3-Chloro-benzyl)-5,6-dimethyl-7H-pyrrolo[2,3-d]pyrimidin-4-ylamino]-ethyl}-phenyl)-benzamide] | 151 to 152.3 | 
11 | CC(=O)Nc1ccc(CCNc2ncnc3c2c(C)c(C)n3Cc2cccc(Cl)c2)cc1 [Example 45, N-(4-{2-[7-(3-Chloro-benzyl)-5,6-dimethyl-7H-pyrrolo[2,3-d]pyrimidin-4-ylamino]-ethyl}-phenyl)-acetamide] | 186.1 to 187.2 | 
12 | CC(=O)Nc1ccc(CCNc2ncnc3c2c(C)c(C)n3Cc2ccco2)cc1 [Example 46, N-{4-[2-(7-Furan-2-ylmethyl-5,6-dimethyl-7H-pyrrolo[2,3-d]pyrimidin-4-ylamino)-ethyl]-phenyl}-acetamide] | 206.8 to 208.1 | 
13 | CC(=O)Nc1ccc(CCNc2ncnc3c2ccn3Cc2ccccc2)cc1 [Example 47, N-{4-[2-(7-Benzyl-7H-pyrrolo[2,3-d]pyrimidin-4-ylamino)-ethyl]-phenyl}-acetamide] | 228 to 229.5 | 
14 | Cc1c(C)n(Cc2ccccc2)c2ncnc(NCCc3ccc(NC(=O)c4cccc(C(F)(F)F)c4)cc3)c12 [Example 48, N-{4-[2-(7-Benzyl-5,6-dimethyl-7H-pyrrolo[2,3-d]pyrimidin-4-ylamino)-ethyl]-phenyl}-3-trifluoromethyl-benzamide] | 110 to 113 | 
15 | Cc1c(C)n(Cc2ccccc2)c2ncnc(NCCc3ccc(NC(=O)c4ccc(Cl)cc4)cc3)c12 [Example 49, N-{4-[2-(7-Benzyl-5,6-dimethyl-7H-pyrrolo[2,3-d]pyrimidin-4-ylamino)-ethyl]-phenyl}-4-chloro-benzamide] | > 270 | 
16 | Cc1c(C)n(Cc2ccccc2)c2ncnc(NCCc3ccc(NC(=O)c4ccccc4)cc3)c12 [Example 50, N-{4-[2-(7-Benzyl-5,6-dimethyl-7H-pyrrolo[2,3-d]pyrimidin-4-ylamino)-ethyl]-phenyl}-benzamide] | 180 to 182 | 
17 | CCN(CC)C(=O)Nc1ccc(CCNc2ncnc3c2c(C)c(C)n3Cc2cccc(Cl)c2)cc1 [Example 52, 3-(4-{2-[7-(3-Chloro-benzyl)-5,6-dimethyl-7H-pyrrolo[2,3-d]pyrimidin-4-ylamino]-ethyl}-phenyl)-1,1-diethyl-urea] | 112.9 to 113.3 | 
18 | CCN(CC)C(=O)Nc1ccc(CCNc2ncnc3c2c(C)c(C)n3Cc2ccccc2)cc1 [Example 53, 3-{4-[2-(7-Benzyl-5,6-dimethyl-7H-pyrrolo[2,3-d]pyrimidin-4-ylamino)-ethyl]-phenyl}-1,1-diethyl-urea] | 138.5 to 139 | 
19 | Cc1c(C)n(Cc2ccccc2)c2ncnc(NCCc3ccc(NS(=O)(=O)c4ccc(F)cc4F)cc3)c12 [Example 54, N-{4-[2-(7-Benzyl-5,6-dimethyl-7H-pyrrolo[2,3-d]pyrimidin-4-ylamino)-ethyl]-phenyl}-2,4-difluoro-benzenesulfonamide] | 183 to 185 | 
20 | Cc1c(C)n(Cc2cccc(Cl)c2)c2ncnc(NCCc3ccc(NS(C)(=O)=O)cc3)c12 [Example 55, N-(4-{2-[7-(3-Chloro-benzyl)-5,6-dimethyl-7H-pyrrolo[2,3-d]pyrimidin-4-ylamino]-ethyl}-phenyl)-methanesulfonamide] | 125 to 129 | 
21 | Cc1c(C)n(Cc2ccccc2)c2ncnc(NCCc3ccc(NC(=O)Nc4cccc(C(F)(F)F)c4)cc3)c12 [Example 57, 1-{4-[2-(7-Benzyl-5,6-dimethyl-7H-pyrrolo[2,3-d]pyrimidin-4-ylamino)-ethyl]-phenyl}-3-(3-trifluoromethyl-phenyl)-urea] | 161.9 to 162.9 | 
22 | Cc1c(C)n(Cc2ccco2)c2ncnc(NCCc3ccc(O)cc3)c12 [Example 59, 4-[2-(7-Furan-2-ylmethyl-5,6-dimethyl-7H-pyrrolo[2,3-d]pyrimidin-4-ylamino)-ethyl]-phenol] | 165 to 167 | 
23 | Oc1ccc(CCNc2ncnc3c2ccn3Cc2ccccc2)cc1 [Example 60, 4-[2-(7-Benzyl-7H-pyrrolo[2,3-d]pyrimidin-4-ylamino)-ethyl]-phenol] | 199.2 to 200.6 | 
24 | Cc1c(C)n(Cc2cccc(Cl)c2)c2ncnc(NCCc3ccc(O)cc3)c12 [Example 61, 4-{2-[7-(3-Chloro-benzyl)-5,6-dimethyl-7H-pyrrolo[2,3-d]pyrimidin-4-ylamino]-ethyl}-phenol] | 167.7 to 170 | 
25 | Cc1c(C)n(Cc2ccccc2)c2ncnc(NCCc3ccc(N(C)C)cc3)c12 [Example 62, (7-Benzyl-5,6-dimethyl-7H-pyrrolo[2,3-d]pyrimidin-4-yl)-[2-(4-dimethylamino-phenyl)-ethyl]-amine] | 95 to 96.6 | 
